Measured values: US8716312B2, “Inhibitors of diacylglycerol acyltransferase” (Merck Sharp & Dohme Corporation, priority 2008, dated 2014)

target: T1, human DGAT1 enzyme (Homo sapiens, UniProt O75907); assay: in vitro DGAT1 inhibition assay (microsomes, [14C]-palmitoyl-CoA, SPA beads)
T1 sequence (O75907 1-488): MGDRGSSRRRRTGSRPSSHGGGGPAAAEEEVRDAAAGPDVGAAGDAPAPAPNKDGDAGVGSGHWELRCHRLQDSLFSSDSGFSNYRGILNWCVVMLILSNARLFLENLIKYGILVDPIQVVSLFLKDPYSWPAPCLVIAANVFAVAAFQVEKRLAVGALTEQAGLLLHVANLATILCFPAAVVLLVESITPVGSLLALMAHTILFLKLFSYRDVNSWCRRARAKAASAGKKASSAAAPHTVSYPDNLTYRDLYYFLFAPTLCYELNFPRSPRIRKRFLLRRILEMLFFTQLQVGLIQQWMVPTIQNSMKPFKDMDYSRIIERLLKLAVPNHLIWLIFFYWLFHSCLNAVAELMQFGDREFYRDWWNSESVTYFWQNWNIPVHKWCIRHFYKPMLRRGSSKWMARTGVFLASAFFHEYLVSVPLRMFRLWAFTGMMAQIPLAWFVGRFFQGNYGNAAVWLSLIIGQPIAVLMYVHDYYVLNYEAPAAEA
Procedure: The in vitro assay to identify DGAT1 inhibitors uses human DGAT1 enzyme expressed in Sf9 insect cells prepared as microsomes. The reaction is initiated by the addition of the combined substrates 1,2-dioleoyl-sn-glycerol and [^14C]-palmitoyl-Co A and incubated with test compounds and microsomal membranes for 2 hours at room temperature. The assay is stopped by adding 0.5 mg wheat germ agglutinin beads in assay buffer with 1% Brij-35 and 1% 3-cholamidopropyldimethyl-ammonio-1-propane sulfonate. Plates are sealed with TopSeal and incubated for 18 hours to allow the radioactive triglyceride product to come into proximity with the bead. Plates are read on a TopCount instrument.
Percent inhibition was calculated as the percent of (test compound inhibition minus non-specific binding) relative to (total binding minus non-specific binding). IC50 values were determined by curve fitting the data to a Sigmoidal dose-response in GraphPad Prism utilizing the following equation: Y=A+(B−A)/(1+10^((Log IC50−X))), where A and B are the bottom and top of the curve (highest and lowest inhibition), respectively, and X is the logarithm of concentration.

| SMILES | IC50 [nM] |
| --- | --- |
| CC1CCCN(c2nc(C(F)(F)F)c(C(=O)Nc3ccc(N4CCN(c5ccccn5)CC4)nc3)o2)C1 (centres unmarked) [Compound 169, 2-(3-methylpiperidin-1-yl)-N-(6-(4-(pyridin-2-yl)piperazin-1-yl)pyridin-3-yl)-4-(trifluoromethyl)oxazole-5-carboxamide] | 11 to 100 |
| O=C(O)c1ccccc1OCC1CCN(c2ccc(NC(=O)c3oc(N4CCC(c5ccccc5)CC4)nc3C(F)(F)F)cn2)CC1 [Compound 266, 2-((1-(5-(2-(4-phenylpiperidin-1-yl)-4-(trifluoromethyl)oxazole-5-carboxamido)pyridin-2-yl)piperidin-4-yl)methoxy)benzoic acid] | 101 to 500 |
| CCOC(=O)c1nnc2n1CCN(c1ccc(NC(=O)c3oc(N4CCC(c5ccccc5)CC4)nc3C(F)(F)F)cn1)C2 [Compound 216, Ethyl 5,6,7,8-tetrahydro-7-[5-[[[2-(4-phenyl-1-piperidinyl)-4-(trifluoromethyl)-5-oxazolyl]carbonyl]amino]-2-pyridinyl]-1,2,4-triazolo[4,3-a]pyrazine-3-carboxylate] | 101 to 500 |
| O=C(Nc1ccc(N2CCN(c3nc4ccccc4o3)CC2)nc1)c1oc(N2CCC(c3ccccc3)CC2)nc1C(F)(F)F [Compound 236] | 101 to 500 |
| O=C(Nc1ccc(N2CCN(C(=O)C3Cc4ccccc4C3)CC2)nc1)c1oc(N2CCC(c3ccccc3)CC2)nc1C(F)(F)F [Compound 244, N-(6-(4-(2,3-dihydro-1H-indene-2-carbonyl)piperazin-1-yl)pyridin-3-yl)-2-(4-phenylpiperidin-1-yl)-4-(trifluoromethyl)oxazole-5-carboxamide] | 101 to 500 |
| O=C(Nc1ccc(N2CCN(C(=O)Cc3ccccc3F)CC2)nc1)c1oc(N2CCC(c3ccccc3)CC2)nc1C(F)(F)F [Compound 225] | 11 to 100 |
| CC1CCCN(c2nc(C(F)(F)F)c(C(=O)Nc3ccc(N4CCN(c5ccccc5F)CC4)nc3)o2)C1 (centres unmarked) [Compound 164, N-(6-(4-(2-fluorophenyl)piperazin-1-yl)pyridin-3-yl)-2-(3-methylpiperidin-1-yl)-4-(trifluoromethyl)oxazole-5-carboxamide] | 11 to 100 |
| CC1CCCN(c2nc(C(F)(F)F)c(C(=O)Nc3ccc(N4CC(NC(=O)Nc5ccccc5F)C4)nc3)o2)C1 (centres unmarked) [Compound 221, N-(6-(3-(3-(2-fluorophenyl)ureido)azetidin-1-yl)pyridin-3-yl)-2-(3-methylpiperidin-1-yl)-4-(trifluoromethyl)oxazole-5-carboxamide] | 101 to 500 |
| O=C(O)c1cccc(OCC2CCN(c3ccc(NC(=O)c4oc(N5CCC(c6ccccc6)CC5)nc4C(F)(F)F)cn3)CC2)c1 [Compound 264, 3-((1-(5-(2-(4-phenylpiperidin-1-yl)-4-(trifluoromethyl)oxazole-5-carboxamido)pyridin-2-yl)piperidin-4-yl)methoxy)benzoic acid] | 11 to 100 |
| O=C(Nc1ccc(N2CCN(C(=O)[C@H](O)c3ccccc3)CC2)nc1)c1oc(N2CCC(c3cccc(Cl)c3)C2)nc1C(F)(F)F (stereo partly drawn) [Compound 207, 2-(3-(3-chlorophenyl)pyrrolidin-1-yl)-N-(6-(4-((R)-2-hydroxy-2-phenylacetyl)piperazin-1-yl)pyridin-3-yl)-4-(trifluoromethyl)oxazole-5-carboxamide] | 11 to 100 |
| Cc1cccc(Cl)c1NC(=O)N1CCCN(c2ccc(NC(=O)c3oc(N4CCCC(C)C4)nc3C(F)(F)F)cn2)CC1 (centres unmarked) [Compound 215, N-(2-chloro-6-methylphenyl)hexahydro-4-[5-[[[2-(3-methyl-1-piperidinyl)-4-(trifluoromethyl)-5-oxazolyl]carbonyl]amino]-2-pyridinyl]-1H-1,4-diazepine-1-carboxamide] | 11 to 100 |

Results, then the molecule that gave them:

| IC50 [nM] | SMILES |
| --- | --- |
| 11 to 100 | O=C(Nc1ccc(N2CCN(C(=S)Nc3ccccc3F)CC2)nc1)c1oc(N2CCC(c3ccccc3)CC2)nc1C(F)(F)F [Compound 181, N-(6-(4-(2-fluorophenylcarbamothioyl)piperazin-1-yl)pyridin-3-yl)-2-(4-phenylpiperidin-1-yl)-4-(trifluoromethyl)oxazole-5-carboxamide] |
| 11 to 100 | O=C(O)c1cccc(COC2CCN(c3ccc(NC(=O)c4oc(N5CCC(c6ccccc6)CC5)nc4C(F)(F)F)cn3)CC2)c1 [Compound 256, 3-((1-(5-(2-(4-phenylpiperidin-1-yl)-4-(trifluoromethyl)oxazole-5-carboxamido)pyridin-2-yl)piperidin-4-yloxy)methyl)benzoic acid] |
| 11 to 100 | CC1CCCN(c2nc(C(F)(F)F)c(C(=O)Nc3ccc(N4CCN(c5ccccc5O)CC4)nc3)o2)C1 (centres unmarked) [Compound 171, N-(6-(4-(2-hydroxyphenyl)piperazin-1-yl)pyridin-3-yl)-2-(3-methylpiperidin-1-yl)-4-(trifluoromethyl)oxazole-5-carboxamide] |
| 11 to 100 | O=C(Nc1ccc(N2CCN(C(=O)[C@H](O)C3CCCCC3)CC2)nc1)c1oc(N2CCC(c3cccc(Cl)c3)C2)nc1C(F)(F)F (stereo partly drawn) [Compound 213, N-(6-(4-((R)-2-cyclohexyl-2-hydroxyacetyl)piperazin-1-yl)pyridin-3-yl)-2-(3-(3-chlorophenyl)pyrrolidin-1-yl)-4-(trifluoromethyl)oxazole-5-carboxamide] |
| 101 to 500 | CC1CCCN(c2nc(C(F)(F)F)c(C(=O)Nc3ccc(N4CCc5c(cccc5Nc5ccccc5F)C4)nc3)o2)C1 (centres unmarked) [Compound 174, N-(6-(5-(2-fluorophenylamino)-3,4-dihydroisoquinolin-2(1H)-yl)pyridin-3-yl)-2-(3-methylpiperidin-1-yl)-4-(trifluoromethyl)oxazole-5-carboxamide] |
| 11 to 100 | O=C(Nc1ccc(N2CCN(C(=O)C(O)C(F)(F)F)CC2)nc1)c1oc(N2CCC(c3cccc(Cl)c3)C2)nc1C(F)(F)F (centres unmarked) [Compound 212, 2-(3-(3-chlorophenyl)pyrrolidin-1-yl)-N-(6-(4-(3,3,3-trifluoro-2-hydroxypropanoyl)piperazin-1-yl)pyridin-3-yl)-4-(trifluoromethyl)oxazole-5-carboxamide] |
| 11 to 100 | O=C(O)c1ccc(F)c(OCC2CCN(c3ccc(NC(=O)c4oc(N5CCC(c6ccccc6)CC5)nc4C(F)(F)F)cn3)CC2)c1 [Compound 268, 4-fluoro-3-((1-(5-(2-(4-phenylpiperidin-1-yl)-4-(trifluoromethyl)oxazole-5-carboxamido)pyridin-2-yl)piperidin-4-yl)methoxy)benzoic acid] |
| 101 to 500 | N#C/N=C(/N1CCCC1)N1CCN(c2ccc(NC(=O)c3oc(N4CCC(c5ccccc5)CC4)nc3C(F)(F)F)cn2)CC1 [Compound 182, (Z)—N-(6-(4-((cyanoimino)(pyrrolidin-1-yl)methyl)piperazin-1-yl)pyridin-3-yl)-2-(4-phenylpiperidin-1-yl)-4-(trifluoromethyl)oxazole-5-carboxamide] |
| 11 to 100 | CC1CCCN(c2nc(C(F)(F)F)c(C(=O)Nc3ccc(N4CCN(C(=O)[C@H](O)c5ccccc5)CC4)nc3)o2)C1 (stereo partly drawn) [Compound 198, N-(6-(4-((R)-2-hydroxy-2-phenylacetyl)piperazin-1-yl)pyridin-3-yl)-2-(3-methylpiperidin-1-yl)-4-(trifluoromethyl)oxazole-5-carboxamide] |
| 11 to 100 | O=C(Nc1ccc(N2CCN(C(=O)Cc3c(F)cccc3F)CC2)nc1)c1oc(N2CCC(c3ccccc3)CC2)nc1C(F)(F)F [Compound 229, N-(6-(4-(2-(2,6-difluorophenyl)acetyl)piperazin-1-yl)pyridin-3-yl)-2-(4-phenylpiperidin-1-yl)-4-(trifluoromethyl)oxazole-5-carboxamide] |
| 101 to 500 | CC1CCCN(c2nc(C(F)(F)F)c(C(=O)Nc3ccc(N4CCc5c(cccc5C(=O)O)C4)nc3)o2)C1 (centres unmarked) [Compound 168, 2-(5-(2-(3-methylpiperidin-1-yl)-4-(trifluoromethyl)oxazole-5-carboxamido)pyridin-2-yl)-1,2,3,4-tetrahydroisoquinoline-5-carboxylic acid] |
| 101 to 500 | O=C(Nc1ccc(N2CCN(C(=O)C3CCc4ccccc4N3)CC2)nc1)c1oc(N2CCC(c3ccccc3)CC2)nc1C(F)(F)F (centres unmarked) [Compound 241, 2-(4-phenylpiperidin-1-yl)-N-(6-(4-(1,2,3,4-tetrahydroquinoline-2-carbonyl)piperazin-1-yl)pyridin-3-yl)-4-(trifluoromethyl)oxazole-5-carboxamide] |
| 101 to 500 | CC1CCCN(c2nc(C(F)(F)F)c(C(=O)Nc3ccc(N4CCCN(C(=O)C(O)C(F)(F)F)CC4)nc3)o2)C1 (centres unmarked) [Compound 191, 2-(3-methylpiperidin-1-yl)-N-(6-(4-(3,3,3-trifluoro-2-hydroxypropanoyl)-1,4-diazepan-1-yl)pyridin-3-yl)-4-(trifluoromethyl)oxazole-5-carboxamide] |
| 11 to 100 | CC1CCCN(c2nc(C(F)(F)F)c(C(=O)Nc3ccc(N4CCC(OCc5ccccc5C(=O)O)CC4)nc3)o2)C1 (centres unmarked) [Compound 255, 2-((1-(5-(2-(3-methylpiperidin-1-yl)-4-(trifluoromethyl)oxazole-5-carboxamido)pyridin-2-yl)piperidin-4-yloxy)methyl)benzoic acid] |
| 101 to 500 | O=C(Nc1ccc(N2CCN(C(=O)Nc3ccccc3F)C(=O)C2)nc1)c1oc(N2CCC(c3ccccc3)CC2)nc1C(F)(F)F [Compound 248, N-(6-(4-(2-fluorophenylcarbamoyl)-3-oxopiperazin-1-yl)pyridin-3-yl)-2-(4-phenylpiperidin-1-yl)-4-(trifluoromethyl)oxazole-5-carboxamide] |
